{"source": "patent US20240287614A1", "about": "“RECIPROCAL MICRORNA-MRNA PAIRINGS AS BIOMARKERS AND THERAPEUTIC TARGETS IN CANCER” (UNIVERSITY OF MARYLAND, EASTERN SHORE, priority 2023, published 2024)", "key": {"[1]": {"tested_on": "cancer cell lines (HT-29, SW620, MDA MB 231, MCF-7, A549, and H1299)", "assay": "TUNEL assay", "format": "cell-based, human", "conditions": "mimic vs NS transfected cancer cells; 48 h", "method": "TUNEL assay was carried out according to the manufacturer's protocol (Click-iT™ Plus In-situ Apoptosis Detection with Alexa Fluor Dyes, Thermo Fisher Scientific). Precisely, 4×10^4 cells (HT-29, SW620, MDA MB 231, MCF-7, A549, and H1299) were seeded on coverslips and allowed to adhere for 24 h in 5% CO2 incubator at 37° C. These cells were fixed in 4% paraformaldehyde in 1×PBS after exposure of miR-99b-5p mimic or negative control mimic for 48 h, then washed with PBS three times followed by the incubation with 0.25% Triton X-100 in 1×PBS and ultimately the cells were incubated with differential steps of TUNEL reaction mixture as per the manufacturer's protocol. Lastly, the processed cells were counterstained with DAPI for 5 min, at room temperature in the dark. All labeled and/or prepared cells were mounted on glass slides and were visualized by Olympus BX3 fluorescence microscope (Olympus). Cell images were captured from 3-4 random areas at 10× magnification by using CellSens V1.18 software (Olympus)."}, "[2]": {"tested_on": "MTOR", "assay": "Western blot of mTOR in transfected prostate cancer cells", "format": "cell-based, human", "conditions": "mimic transfection vs NS transfection", "method": "[…] RC77 T/E, a primary prostate cancer cell line derived from a patient, was kindly provided by Dr. Johng Rhim at Center for Prostate Disease Research (CPDR) in Rockville, MD. LNCaP and PC-3 were served as prostate cancer cell line models, and RC77 T/E and MDA PCa 2b were served as prostate cancer cell models in the study. The cells were cultured in specific cell culture media, LNCaP was cultured in RPMI with 10% fetal bovine serum (FBS), PC-3 was cultured in DMEM with 10% FBS, MDA PCa 2b were cultured in BRFF-HPC1 with 20% FBS and RC77 T/E was cultured in Keratinocyte SFM with Human Recombinant Epidermal Growth Factor (EGF 1-53) and Bovine Pituitary Extract (BPE). Cells were maintained at 37° C. in a 5% CO2 incubator. LNCaP, PC-3 and MDA PCa 2b cells were seeded at density 3×10^4 cells/well in 6-well plates. RC77 T/E cells were seeded at density 5×10^4 cells/well in 6-well plates. […]\nFor measurement of the gene expression at protein level, proteins were extracted using M-PER Mammalian Protein Extraction Reagent (Thermo Fisher Scientific) with protease and phosphatase inhibitor cocktail (Thermo Fisher Scientific). Protein concentrations were quantified using BCA assay kit (Thermo Fisher Scientific). […]"}}, "data": [{"substance": "miR-99b-5p mimic: miRNA mimic of miR-99b-5p (SEQ ID NO: 2, CACCCGUAGAACCGACCUUGCG), purchased from Ambion (listed as RNA, chemistry not given here; listed as Homo sapiens)", "values": [{"measurement": "DNA breakages (TUNEL red fluorescent signals in nuclei)", "setting": "[1]", "result": "enhanced"}, {"measurement": "mTOR level (Western blot)", "setting": "[2]", "result": "downregulated"}]}]}
